# Laboratory results taken from patent US20190015379A1, “USE OF DIANHYDROGALACTITOL AND ANALOGS AND DERIVATIVES THEREOF, TOGETHER WITH RADIATION, TO TREAT NON-SMALL-CELL CARCINOMA OF THE LUNG AND GLIOBLASTOMA MULTIFORME AND SUPPRESS PROLIFERATION OF CANCER STEM CELLS” (DelMar Pharmaceuticals, Inc., priority 2014, published 2019).
# Entries after “also recorded” stand apart in the source; their conditions may differ.
# Columns and labels:
# [1] = system: GBM; settings: cited from earlier work
# [2] = system: CSC and non-CSC cultures derived from primary GBM tissue; assay: Cell viability (CellTiter-Glo) in primary GBM cultures with or without radiation; type: cell-based, human
# Method: “GAPDH” refers to glyceraldehyde-3-phosphate dehydrogenase as a control. For the cell cultures, CSCs were cultured in NSA media supplemented with B27, EGF and bFGF. Non-CSCs were grown in DMEM:F12 with 10% FBS. MGMT methylation and protein expression analysis of each culture was characterized. TMZ or VAL-083 was added to the cultures in the indicated concentrations. Depending on the experiment, cells were also irradiated with 2 Gy in a Cesium irradiator. For assays, cell cycle analysis was performed with Propidium Iodide staining and FACs analysis. Cell viability was analyzed with CellTiter-Glo™ and read on a Promega GloMax™. […] In FIG. 4, “1° GBM” refers to primary glioblastoma multiforme cell cultures.
# In FIG. 17, TMZ (50 μM) or dianhydrogalactitol (“VAL-083”) (5 μM) were added to primary CSC cultures at various doses with or without irradiation (2 Gy). Shown are cell cycle profile analysis at day 4 post treatment (A,C) and cell viability analysis at day 6 post treatment (B,D) for the paired CSC (A,B) and non-CSC (C,D) 7996 culture.
# In FIG. 18, dianhydrogalactitol (“VAL-083”) was added to primary CSC cultures at various doses (1, 2.5 and 5 μM) with or without irradiation (2 Gy). Shown are cell cycle profile analysis at day 4 post treatment (A,C) and cell viability analysis at day 6 post treatment (B,D) for two different patient-derived CSC cultures, 7996 (A,B) and 8565 (C,D).
# [3] = system: GBM cell lines SF188, U251, and T98G; assay: Tumor growth inhibition in GBM cell lines (FIG. 29); type: cell-based, human; settings: MGMT negative SF188 and U251, MGMT positive T98G
# [4] = Phase I/II dose-escalation study, plasma pharmacokinetics; type: in vivo, human
# Excerpt: The methodology of the study reported in this Example is as follows: An open-label, single arm Phase I/II dose-escalation study designed to evaluate the safety, tolerability, pharmacokinetics and anti-tumor activity of dianhydrogalactitol in patients with: (i) histologically confirmed initial diagnosis of primary WHO Grade IV malignant GBM, now recurrent, or (ii) progressive secondary brain tumor, having failed standard brain radiotherapy, and with brain tumor progression after at least one line of systemic therapy. The study utilizes a 3+3 dose escalation design, until the MTD or the maximum specified dose is reached. Patients receive dianhydrogalactitol intravenously at the assigned dose on days 1, 2, and 3 of each 21-day treatment cycle. In Phase II, additional patients will be treated at the MTD (or other selected optimum Phase II dose) to measure tumor responses. All patients enrolled have previously been treated with surgery and/or radiation, if appropriate, and must have failed both bevacizumab and TMZ, unless contraindicated. For these studies, the following is a summary of the inclusion criteria: (1) Patients must be greater than or equal to 18 years old. […]
# [5] = cited from earlier work
# [6] = system: A549 human lung adenocarcinoma xenograft tumors; assay: A549 NSCLC xenograft tumor growth in Rag2 mice; type: in vivo, female Rag2 mice
# Method: The purpose of the study reported in this Example is to evaluate the activity of dianhydrogalactitol in in vivo models of drug-resistant NSCLC in comparison to other drugs, including cisplatin. Rag2 mice bearing subcutaneous human lung adenocarcinoma xenograft tumors of either TKI-resistant (H1975) or TKI-sensitive (A549) origin were treated.
# Two human NSCLC cell lines, A549 (TKI-sensitive) and H1975 (TKI-resistant), were used as xenograft tumor models in female Rag2 mice. The mice were 6 to 8 weeks of age and weighed 18-23 grams. 10 mice were used per group.
# Cisplatin was used in normal saline at a dose of 5 mg/kg. Administration was intravenous.
# Dianhydrogalactitol was used in 0.9% sodium chloride for injection at 1.5 mg/kg to 6 mg/kg. Administration was intraperitoneal.
# Treatment was initiated at a tumor volume of 100 mm^3 to 150 mm^3.
# On day 0, tumor cells were implanted subcutaneously into mice in a volume of 50 μL in Matrigel™ using a 28-gauge needle; injection of the tumor cells was in the back of the mice. Mice were randomly assigned to groups based on tumor volume.
# Tumor growth was monitored by measuring tumor dimensions with calipers beginning on the first day of treatment. Tumor length and width measurements were obtained each Monday, Wednesday, and Friday. Tumor volumes were calculated according to the equation L×W^2/2 with the length (in mm) being defined as the longer axis of the tumor. Animals were weighed at the time of tumor measurement. Tumors were allowed to grow to a maximum of 800 mm^3 before termination.
# [7] = in vivo; cited from earlier work
# [8] = system: cancer stem cells (BT74, GBM4 and GBM8); settings: neurosphere growth assays; Hu et al. 2012; cited from earlier work
# [9] = dianhydrogalactitol 1.5 mg/kg i.p. (group 3)
# [10] = dianhydrogalactitol 3 mg/kg i.p. (group 4)
substance,measurement,setting,value
dianhydrogalactitol,Median O.S. (XRT + Chemo),"[1]; GBM, Eagan (1979), Stupp (2005)",67 weeks
same,efficacy in combination with radiation versus radiation alone,"[1]; cumulative IV dose of 125 mg/m^2 in a 35 day cycle, brain cancer, Eagan 1979",superior to radiation alone
same,effect in combination with radiation,"[2]; 1, 2.5 and 5 μM with or without irradiation (2 Gy), CSC cultures 7996 and 8565",acts as a radiosensitizer in primary CSC cultures; also recorded: potential additive effect of dianhydrogalactitol with radiation
same,reduction in cell viability with dianhydrogalactitol plus radiation,"[2]; 7996 GNS (CSC), low concentration such as 1 μM, radiation",20%
same,cell viability in TMZ-resistant cultures,"[2]; VAL-083 5 μM, paired CSC and non-CSC 7996 culture, viability day 6 post treatment",decreases cell viability in TMZ-resistant cultures
same,inhibition of tumor growth compared with TMZ,[3],better than TMZ for inhibiting tumor growth
same,"pharmacokinetics, dose dependence",[4]; dose cohorts of the current trial,linear
same,plasma half-life,"[4]; i.v., patients",1 to 2 h
same,Recovery,"[5]; GBM chemotherapy, historical data",Within 7-8 days
same,DLT,"[5]; human, in vivo",Hematologic
same,Nadir,"[5]; human, in vivo",18 to 21 days
same,Other Severe Toxicities Reported (>2%),"[5]; human, in vivo",None
same,day on which a mean tumor volume of 200 mm^3 was observed,[6]; [9],45 days
same,day on which a mean tumor volume of 400 mm^3 was reached,[6]; [9],67 days
same,tumor doubling time,[6]; [9],22
same,number of animals remaining on study on day 70,"[6]; dianhydrogalactitol 1.5 mg/kg i.p. M, W, F for 3 weeks (group 3)",7/10
same,tumor growth delay compared to untreated controls,[6]; dianhydrogalactitol 3 mg/kg i.p.,26 days
same,day on which a mean tumor volume of 200 mm^3 was observed,[6]; [10],42 days
same,day on which a mean tumor volume of 400 mm^3 was reached,[6]; [10],81 days
same,tumor doubling time,[6]; [10],39
same,number of animals remaining on study on day 70,"[6]; dianhydrogalactitol 3 mg/kg i.p. M, W, F for 3 weeks (group 4)",6/10
same,day on which a mean tumor volume of 200 mm^3 was observed,[6]; dianhydrogalactitol 6 mg/kg i.p. (group 5),54 days
same,number of animals remaining on study on day 70,[6]; dianhydrogalactitol 6 mg/kg i.p. (group 5; stopped after 3 doses),8/10
same,blood-brain barrier passage,[7],readily crosses the blood-brain barrier and accumulates in brain tissue
same,inhibition of growth of cancer stem cells,[8],80-100%
